# Laboratory results as given in PubChem BioAssay AID330 (DTP/NCI, 2004).
# Values joined by “and” are separate entries in the source; they are usually repeats but may differ in a detail not shown here. Equal entries are not always repeated. Inconclusive results and toxic doses are left out.
# System: P388 leukemia ip, CD2F1 mice, survival T/C
# Assay: NCI In Vivo Anticancer Drug Screen. Data for tumor model P388 Leukemia (intraperitoneal) in CD2F1 (CDF1) mice
# Conditions: endpoint: median survival time, higher = longer survival
# Procedure, shortened: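 Mice carrying the transplanted tumor received test compound or vehicle. Survival was recorded in each group, and the value is the treated-group measurement divided by that of the vehicle-treated control group.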
# [1] = dose: 50.0 mg/kg/injection, schedule: Q01DX005 (ip), vehicle: saline with Tween-80
# [2] = dose: 100.0 mg/kg/injection, schedule: Q01DX005 (ip), vehicle: saline with Tween-80
# [3] = dose: 200.0 mg/kg/injection, schedule: Q01DX005 (ip), vehicle: saline with Tween-80
# [4] = dose: 25.0 mg/kg/injection, schedule: Q01DX005 (ip), vehicle: Klucel (hydroxypropylcellulose) (HPC)
# [5] = dose: 50.0 mg/kg/injection, schedule: Q01DX005 (ip), vehicle: Klucel (hydroxypropylcellulose) (HPC)
# [6] = dose: 100.0 mg/kg/injection, schedule: Q01DX005 (ip), vehicle: Klucel (hydroxypropylcellulose) (HPC)
# [7] = dose: 200.0 mg/kg/injection, schedule: Q01DX005 (ip), vehicle: Klucel (hydroxypropylcellulose) (HPC)
# [8] = dose: 50.0 mg/kg/injection, schedule: Q01DX009 (ip), vehicle: saline with Tween-80
smiles,measurement,setting,value
CCCCCCCC(=O)NC1CC(O[C@H]2C[C@](O)(C(C)=O)Cc3c(O)c4c(c(O)c32)C(=O)c2c(OC)cccc2C4=O)OC(C)C1O (some centres undefined),T/C,"dose: 0.75 mg/kg/injection, schedule: Q01DX009 (ip), vehicle: other",113 % of control
same,T/C,"dose: 2.0 mg/kg/injection, schedule: Q04DX003 (ip), vehicle: other",107 % of control
same,T/C,"dose: 4.0 mg/kg/injection, schedule: Q04DX003 (ip), vehicle: other",98 % of control
same,T/C,"dose: 8.0 mg/kg/injection, schedule: Q04DX003 (ip), vehicle: other",102 % of control
same,T/C,"dose: 16.0 mg/kg/injection, schedule: Q04DX003 (ip), vehicle: other",105 % of control
same,T/C,"dose: 32.0 mg/kg/injection, schedule: Q04DX003 (ip), vehicle: other",116 % of control and 96 % of control
same,T/C,"dose: 50.0 mg/kg/injection, schedule: Q04DX003 (ip), vehicle: other",118 % of control
same,T/C,"dose: 64.0 mg/kg/injection, schedule: Q04DX003 (ip), vehicle: other",114 % of control
same,T/C,"dose: 100.0 mg/kg/injection, schedule: Q04DX003 (ip), vehicle: other",105 % of control
same,T/C,"dose: 128.0 mg/kg/injection, schedule: Q04DX003 (ip), vehicle: other",123 % of control
same,T/C,"dose: 256.0 mg/kg/injection, schedule: Q04DX003 (ip), vehicle: other",123 % of control
same,T/C,"dose: 400.0 mg/kg/injection, schedule: Q04DX003 (ip), vehicle: other",115 % of control
O=C1NC(c2cccc(OCc3ccccc3)c2)Nc2ccccc21 (centres undefined),T/C,"dose: 3.13 mg/kg/injection, schedule: Q01DX009 (ip), vehicle: Klucel (hydroxypropylcellulose) (HPC)",94 % of control
same,T/C,"dose: 6.25 mg/kg/injection, schedule: Q01DX009 (ip), vehicle: Klucel (hydroxypropylcellulose) (HPC)",107 % of control
same,T/C,"dose: 12.5 mg/kg/injection, schedule: Q01DX009 (ip), vehicle: Klucel (hydroxypropylcellulose) (HPC)",102 % of control
same,T/C,"dose: 25.0 mg/kg/injection, schedule: Q01DX009 (ip), vehicle: Klucel (hydroxypropylcellulose) (HPC)",100 % of control
same,T/C,"dose: 50.0 mg/kg/injection, schedule: Q01DX009 (ip), vehicle: Klucel (hydroxypropylcellulose) (HPC)",109 % of control
same,T/C,"dose: 100.0 mg/kg/injection, schedule: Q01DX009 (ip), vehicle: Klucel (hydroxypropylcellulose) (HPC)",115 % of control
same,T/C,"dose: 200.0 mg/kg/injection, schedule: Q01DX009 (ip), vehicle: Klucel (hydroxypropylcellulose) (HPC)",102 % of control
CCCCNC(=O)C(C)OC(C)=O (centres undefined),T/C,[1],96 % of control
same,T/C,[2],99 % of control
same,T/C,[3],96 % of control
CCOC(=O)c1cc(N)c(N2CCCC2)cc1Cl,T/C,"dose: 90.0 mg/kg/injection, schedule: Q04DX003 (ip), vehicle: saline with Tween-80",100 % of control
same,T/C,"dose: 133.0 mg/kg/injection, schedule: Q04DX003 (ip), vehicle: saline with Tween-80",100 % of control
same,T/C,"dose: 200.0 mg/kg/injection, schedule: Q04DX003 (ip), vehicle: saline with Tween-80",90 % of control
same,T/C,"dose: 300.0 mg/kg/injection, schedule: Q04DX003 (ip), vehicle: saline with Tween-80",95 % of control
CC(CO)c1cc2c(cc1O)[C@@]1(C)CCCC(C)(C)[C@@H]1CC2 (some centres undefined),T/C,[4],99 % of control
same,T/C,[5],102 % of control
same,T/C,[6],89 % of control
same,T/C,[7],89 % of control and 93 % of control
same,T/C,"dose: 400.0 mg/kg/injection, schedule: Q01DX005 (ip), vehicle: Klucel (hydroxypropylcellulose) (HPC)",88 % of control
O=c1[nH]cnc2[nH]ccc12,T/C,[8],106 % of control
COC(=O)C(CSCc1ccccc1)NC(=O)CCNC(=O)OCc1ccccc1 (centres undefined),T/C,"dose: 25.0 mg/kg/injection, schedule: Q01DX009 (ip), vehicle: other",103 % of control
same,T/C,"dose: 50.0 mg/kg/injection, schedule: Q01DX009 (ip), vehicle: other",103 % of control
same,T/C,"dose: 100.0 mg/kg/injection, schedule: Q01DX009 (ip), vehicle: other",96 % of control
same,T/C,"dose: 200.0 mg/kg/injection, schedule: Q01DX009 (ip), vehicle: other",90 % of control
same,T/C,"dose: 400.0 mg/kg/injection, schedule: Q01DX009 (ip), vehicle: other",97 % of control
CCN(CC)CCCNc1nccc2c(C)c3[nH]c4ccncc4c3cc12,T/C,"dose: 0.5 mg/kg/injection, schedule: Q04DX003 (ip), vehicle: other",162 % of control
same,T/C,"dose: 0.5 mg/kg/injection, schedule: Q04DX003 (iv), vehicle: other",110 % of control
same,T/C,"dose: 0.58 mg/kg/injection, schedule: Q04DX003 (ip), vehicle: other",155 % of control
same,T/C,"dose: 0.97 mg/kg/injection, schedule: Q04DX003 (ip), vehicle: other",156 % of control
same,T/C,"dose: 1.0 mg/kg/injection, schedule: Q04DX003 (iv), vehicle: other",110 % of control
same,T/C,"dose: 1.62 mg/kg/injection, schedule: Q04DX003 (ip), vehicle: other",182 % of control
same,T/C,"dose: 2.0 mg/kg/injection, schedule: Q04DX003 (iv), vehicle: other",112 % of control
same,T/C,"dose: 2.7 mg/kg/injection, schedule: Q04DX003 (ip), vehicle: other",189 % of control
same,T/C,"dose: 3.24 mg/kg/injection, schedule: Q04DX002 (ip), vehicle: other",170 % of control and 175 % of control
same,T/C,"dose: 3.89 mg/kg/injection, schedule: Q04DX002 (ip), vehicle: other",179 % of control
same,T/C,"dose: 4.0 mg/kg/injection, schedule: Q04DX003 (iv), vehicle: other",122 % of control
same,T/C,"dose: 4.5 mg/kg/injection, schedule: Q04DX003 (ip), vehicle: other",196 % of control
same,T/C,"dose: 5.4 mg/kg/injection, schedule: Q04DX002 (ip), vehicle: other",168 % of control and 185 % of control
same,T/C,"dose: 6.48 mg/kg/injection, schedule: Q04DX002 (ip), vehicle: other",213 % of control
same,T/C,"dose: 7.5 mg/kg/injection, schedule: Q04DX003 (ip), vehicle: other",182 % of control
same,T/C,"dose: 9.0 mg/kg/injection, schedule: Q04DX002 (ip), vehicle: other",200 % of control and 207 % of control
same,T/C,"dose: 10.8 mg/kg/injection, schedule: Q04DX002 (ip), vehicle: other",194 % of control
same,T/C,"dose: 15.0 mg/kg/injection, schedule: Q04DX002 (ip), vehicle: other",200 % of control and 217 % of control
same,T/C,"dose: 18.0 mg/kg/injection, schedule: Q04DX002 (ip), vehicle: other",215 % of control
CCC(C)N=Cc1ccco1 (centres undefined),T/C,[4],101 % of control
same,T/C,[5],104 % of control
same,T/C,[6],90 % of control
same,T/C,[7],99 % of control
CSc1ccc(SC)c2c1C(=O)c1c(SC)ccc(SC)c1C2=O,T/C,[8],93 % of control
same,T/C,"dose: 100.0 mg/kg/injection, schedule: Q01DX009 (ip), vehicle: saline with Tween-80",96 % of control
CC1(C)c2ccccc2C(=O)c2ccccc21,T/C,[1],103 % of control
same,T/C,[2],100 % of control
same,T/C,[3],103 % of control
CSc1ccc2c(c1)C(N1CCN(C)CC1)Cc1ccccc1S2 (centres undefined),T/C,"dose: 6.25 mg/kg/injection, schedule: Q01DX009 (ip), vehicle: saline with Tween-80",106 % of control and 107 % of control and 114 % of control
same,T/C,"dose: 12.5 mg/kg/injection, schedule: Q01DX009 (ip), vehicle: saline with Tween-80",103 % of control and 107 % of control and 95 % of control
same,T/C,"dose: 12.5 mg/kg/injection, schedule: Q01DX009 (ip), vehicle: saline",117 % of control
same,T/C,"dose: 25.0 mg/kg/injection, schedule: Q01DX009 (ip), vehicle: saline with Tween-80",86 % of control and 95 % of control
same,T/C,"dose: 25.0 mg/kg/injection, schedule: Q01DX009 (ip), vehicle: saline",118 % of control
O=C(c1ccc(C(=O)N2CC2)cc1)N1CC1,T/C,"dose: 10.0 mg/kg/injection, schedule: Q04DX003 (ip), vehicle: saline with Tween-80",118 % of control
same,T/C,"dose: 20.0 mg/kg/injection, schedule: Q04DX003 (ip), vehicle: saline with Tween-80",109 % of control
ON=C1CCCCCCC1,T/C,"dose: 50.0 mg/kg/injection, schedule: Q01DX009 (ip), vehicle: suspension in saline",97 % of control
same,T/C,"dose: 100.0 mg/kg/injection, schedule: Q01DX009 (ip), vehicle: suspension in saline",104 % of control
same,T/C,"dose: 200.0 mg/kg/injection, schedule: Q01DX009 (ip), vehicle: suspension in saline",103 % of control
same,T/C,"dose: 400.0 mg/kg/injection, schedule: Q01DX009 (ip), vehicle: suspension in saline",98 % of control
CCOc1cc2c(cc1C(CC)c1ccccc1)OCO2 (centres undefined),T/C,[5],99 % of control
same,T/C,[6],96 % of control
same,T/C,[7],95 % of control
CCCC1(CCC)NC(=O)N(CC(=O)OCC)C1=O,T/C,"dose: 100.0 mg/kg/injection, schedule: Q01DX001 (ip), vehicle: saline",105 % of control
same,T/C,"dose: 200.0 mg/kg/injection, schedule: Q01DX001 (ip), vehicle: saline",110 % of control
O=c1[nH]c2c([N+](=O)[O-])cc(Cl)cc2nc1/C=C(\O)c1ccco1,T/C,"dose: 60.0 mg/kg/injection, schedule: Q01DX005 (ip), vehicle: saline with Tween-80",101 % of control
same,T/C,"dose: 120.0 mg/kg/injection, schedule: Q01DX005 (ip), vehicle: saline with Tween-80",89 % of control
same,T/C,"dose: 240.0 mg/kg/injection, schedule: Q01DX005 (ip), vehicle: saline with Tween-80",92 % of control
